Data reported in patent publication US20150272951A1, “COMPOUNDS FOR THE TREATMENT OF LYSOSOMAL STORAGE DISEASES” (The Hospital for Sick Children, priority 2010, published 2015).
Where two headings read alike, the source gives them in different places.

Key:
Hex A = Hex A (Homo sapiens, UniProt P06865+P07686); assay: Hex A inhibition (IC50 from dose response curves of Hex A residual activity); details: for pKHA: pH dependence of Hex A inhibition;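 as to all read-outs here: remaining Hex A enzyme activity recorded across rising inhibitor doses, with dose response curves run at pH 6.5 and again at pH 4.5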
Hex A, sequence (P06865 89-529): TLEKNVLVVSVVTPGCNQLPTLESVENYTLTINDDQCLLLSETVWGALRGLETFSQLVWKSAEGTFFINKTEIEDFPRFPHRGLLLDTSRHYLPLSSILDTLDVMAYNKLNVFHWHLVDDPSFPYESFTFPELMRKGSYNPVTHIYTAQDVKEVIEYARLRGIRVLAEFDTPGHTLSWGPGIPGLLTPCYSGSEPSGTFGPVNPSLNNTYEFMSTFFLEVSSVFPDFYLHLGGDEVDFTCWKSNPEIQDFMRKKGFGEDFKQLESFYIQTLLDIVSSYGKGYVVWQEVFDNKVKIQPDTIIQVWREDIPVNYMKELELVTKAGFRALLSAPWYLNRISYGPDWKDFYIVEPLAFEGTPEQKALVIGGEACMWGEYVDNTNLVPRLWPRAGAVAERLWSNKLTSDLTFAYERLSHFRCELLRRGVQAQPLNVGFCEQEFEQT
Hex A, sequence (P07686 122-311 limits assumed): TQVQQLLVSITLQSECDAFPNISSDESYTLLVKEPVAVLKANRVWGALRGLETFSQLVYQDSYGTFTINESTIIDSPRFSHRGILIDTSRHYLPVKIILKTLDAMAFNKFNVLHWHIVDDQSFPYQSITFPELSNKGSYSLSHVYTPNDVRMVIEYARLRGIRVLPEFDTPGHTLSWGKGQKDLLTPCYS
Hex A, sequence (P07686 315-556 limits assumed): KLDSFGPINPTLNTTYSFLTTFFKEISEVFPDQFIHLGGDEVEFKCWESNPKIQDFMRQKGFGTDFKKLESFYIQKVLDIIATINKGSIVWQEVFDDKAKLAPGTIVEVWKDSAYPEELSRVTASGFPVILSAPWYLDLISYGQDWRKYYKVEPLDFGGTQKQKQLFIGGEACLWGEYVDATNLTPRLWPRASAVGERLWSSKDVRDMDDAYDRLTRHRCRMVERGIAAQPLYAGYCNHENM
Description: The NINDS library was screened for compounds having Hex A inhibitory activity.
(§1) Experiments were performed using 1.6 mM 4-methylumbelliferone-b-N-Acetylglucosamine substrate.

mutant Hex A [1] = target: mutant Hex A (Homo sapiens, UniProt P06865+P07686); assay type: cell-based; details: for EC50: Hex A rescue, determined from graphs of FIGS. 5-7; for Max Increase: maximum increase in Hex A activity relative to untreated cells (=1); for Range of Increase: range of increase in Hex A activity
Description: Using the graphs of FIGS. 5-7, the EC50 values for Hex A rescue were determined as well as the maximum increase and range of increase in Hex A activity. These values are tabulated in Table 2, together with the IC50 values for Hex A inhibition that were determined in Example 3.

malaria = details: cited from earlier work
lysosomal HexA = assay: Intracellular hydrolysis of fluorescent GM2 ganglioside derivative in patient cells; assay type: cell-based, human; details: PYRdCl 11 μg/ml vs PYR 33 μg/ml, 10 days
Description: Prior to evaluation of the GM2 hydrolytic activity of lysosomal HexA, cells were treated with Conduritol b-epoxide (Glucocerebrosidase inhibitor) to limit hydrolysis beyond (GlcCer) loaded with a fluorescent derivative of GM2 ganglioside for 8 hrs. Neutral glycolipids and gangliosides were separated by Folch extraction of the treated cells. Gangliosides and glycolipids were resolved by High Performance Thin Layer Chromatography and visualized by Fluorescence Imaging (Storm Imager, Molecular Devices).

HexB = HexB (Homo sapiens, UniProt P07686); assay: HexB inhibition (purified isozyme); assay type: biochemical
HexB, sequence (P07686 122-311 limits assumed): as the sequence (P07686 122-311 limits assumed) above
HexB, sequence (P07686 315-556 limits assumed): as the sequence (P07686 315-556 limits assumed) above
Description: as §1

[2] = target: T1, purified recombinant human DHFR (Homo sapiens, UniProt P00374); assay: DHFR inhibition; assay type: biochemical; details: FIG. 13B
T1 sequence (P00374 1-187): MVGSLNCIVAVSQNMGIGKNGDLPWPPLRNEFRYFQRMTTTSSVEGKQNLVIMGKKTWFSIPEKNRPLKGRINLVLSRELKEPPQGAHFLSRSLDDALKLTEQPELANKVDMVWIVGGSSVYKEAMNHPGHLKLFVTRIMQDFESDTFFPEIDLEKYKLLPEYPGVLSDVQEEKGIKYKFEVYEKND

HexA wt = target: T2, HexA wt (Homo sapiens, UniProt P06865+P07686); assay: Inhibition of HexA enriched from normal fibroblasts; assay type: biochemical; details: pH 4.5
T2 construct: endogenous in cells; host or cells: normal fibroblasts (HexA isozyme enriched from them)
T2 sequence (P06865 89-529): as the sequence (P06865 89-529) above
T2 sequence (P07686 122-311 limits assumed): as the sequence (P07686 122-311 limits assumed) above
T2 sequence (P07686 315-556 limits assumed): as the sequence (P07686 315-556 limits assumed) above
Description: as §1

mutant Hex A [3] = assay type: cell-based, human
Description: The cells were harvested and assayed for Hex A using a fluorescent artificial substrate, MUGS. The increase in Hex A activity relative to that of untreated cells is given, i.e. no change in activity=1;
Cells were grown in the indicated concentrations of either drug for five days. The cells were harvested and assayed for Hex A activity using a fluorescent artificial substrate, MUGS. The increase in Hex A activity relative to that of untreated cells is given, i.e. no change in activity=1.
Two of the other cultures were un-genotyped infantile Tay-Sachs disease fibroblast cell lines. […] The increase in Hex A activity relative to that of untreated cells is given, i.e., no change in activity=1. The decrease in Hex A activity at high concentrations represents cell toxicity.

patient fibroblasts = assay: Cell viability by Alamar Blue; assay type: cell-based, human; details: concentrations greater than 100 μM, five days of treatment
[4] = IC50 (μM ± Err), in brackets, brackets: IC50 extrapolated from an incomplete dose response curve
[5] = IC50 (μM), compounds with bracketed IC50, extrapolated from an incomplete dose response curve
[6] = IC50 (μM ± Err), Hex A inhibition, values determined in Example 3, pH not given
[7] = IC50 (μM), without error, pH not stated
[8] = read-out: IC50 (μM ± Err), Hex A inhibition, values determined in Example 3, pH not given

Row | Structure (SMILES) | IC50 (Hex A; [4]) [µM] | IC50 (Hex A; [6]) [µM] | IC50 (Hex A; [7]) [µM] | EC50 (mutant Hex A [1]) [µM] | Max Increase (mutant Hex A [1]) | Range of Increase (mutant Hex A [1]) | further results
1 | Cc1ccc(-c2c(C)nc(N)nc2N)cc1 [ksh3-14b] | 1720 |  |  |  |  |  | IC50 (Hex A; [5]): 1720 µM
2 | CCc1ncnc(N)c1-c1ccc(C(F)(F)F)cc1 [vsa6] | 936 |  |  |  |  |  | IC50 (Hex A; [5]): 936 µM
3 | CCCc1nc(N)nc(N)c1-c1ccc(C)cc1 [zjm1-137] |  | 28 ± 1 | 28.4 | 4.6 | 2.0 | 3 | 
4 | CCc1nc(N)nc(N)c1-c1ccc(C(F)(F)F)cc1 [vsa5] |  |  | 14.7 | 2.24 | 1.4 | 3 | IC50 (Hex A; [8]): 15 ± 1 µM
5 | NCc1nc(N)nc(N)c1-c1ccc(Cl)cc1 [zjm7-27] |  | 176 ± 1 | 176 |  | 1.4 | 1 | 
6 | CC(C)c1nc(N)nc(N)c1-c1ccc(Cl)cc1 [jts20] |  | 406 ± 2 | 406 |  |  |  | 
7 | CCc1nc(N)nc(N)c1-c1cccc(C)c1 [ksh3-19d] |  |  | 34.5 | 6.67 | 2.1 | 5 | IC50 (Hex A; [8]): 34 ± 1 µM
8 | CCCc1nc(N)nc(N)c1-c1ccc(C(F)(F)F)cc1 [zjm1-141] |  | 16 ± 1 | 15.9 | 11.6 | 1.5 | 3 | 
9 | CCCCc1nc(N)nc(N)c1-c1ccc(C)cc1 [zjm1-111] | 600 |  |  |  |  |  | IC50 (Hex A; [5]): 600 µM
10 | CCCCc1nc(N)nc(N)c1-c1ccc(Cl)cc1 [zjm1-91] | 1360 |  |  |  |  |  | IC50 (Hex A; [5]): 1360 µM
11 | CCc1nc(N)nc(N)c1-c1ccccc1 [ksh3-10] |  |  |  | 38.4 | 2.6 | 4 | activity against malaria relative to PYR (malaria): inferior activity against malaria relative to PYR; intracellular hydrolysis of fluorescent GM2 ganglioside derivative (lysosomal HexA): greater intracellular hydrolysis; IC50 (Hex A; [8]): 32 ± 1 µM; IC50 (Hex A; read-out: IC50 HexA pH 7, purified HexA, pH 7): 11 µM; IC50 (Hex A; without error, pH not stated): 32 µM; IC50 (HexB; pH 4.5, 1.6 mM substrate, read-out: IC50 HexB pH 4.5): 38 µM; IC50 (HexB; pH 7, read-out: IC50 HexB pH 7): 15 µM; IC50 [2]: 0.2 µM; fold increase in Hex A activity (rescue of mutant Hex A) (mutant Hex A [1]; concentration of 100 μM (FIGS. 6 and 7)): ~3 fold; IC50 (HexA wt): 27 µM; fold increase in Hex A activity (mutant Hex A [3]; 33.33 μg/ml, five days, relative to untreated cells (FIG. 5)): 7 fold; Hex A rescue response compared with PYR (mutant Hex A [3]; all Tay-Sachs cell lines tested (FIG. 5)): as good or a better than PYR
12 | Cc1nc(N)nc(N)c1-c1ccc(F)cc1 [ksh3-14a] | 923 |  |  |  |  |  | IC50 (Hex A; [5]): 923 µM
13 | CCCc1nc(N)nc(N)c1-c1cccc(C)c1 [ksh3.33d] |  | 50 ± 1 | 50.4 | 14.8 | 1.7 | 3 | 
14 | CCCc1nc(N)nc(N)c1-c1cc(C)cc(C)c1 [ksh3.33e] |  | 24 ± 1 | 24.4 |  | 1.6 | 1 | 
15 | CCc1nc(N)nc(N)c1-c1cc(C)cc(C)c1 [ksh3-19e] |  |  |  | 16.4 | 2.2 | 3 | IC50 (Hex A; [8]): 47 ± 1 µM; IC50 (Hex A; without error, pH not stated): 47.4 µM
16 | Cc1ccc(-c2c(C)nc(N)nc2N)cc1 [ksh3-14c] | 3830 |  |  |  |  |  | IC50 (Hex A; [5]): 3830 µM
17 | CCc1[nH]c(=O)nc(N)c1-c1ccc(Cl)cc1 [vsa9] | 400 |  |  |  |  |  | 
18 | CCCc1nc(N)nc(N)c1-c1ccccc1C [ksh3-33c] | 825 |  |  |  |  |  | 
19 | CCCc1nc(N)nc(N)c1-c1ccc(Cl)cc1 [zjm1-135] |  |  |  | 7.14 | 1.4 | 3 | IC50 (Hex A; [8]): 18 ± 1 µM; IC50 (Hex A; without error, pH not stated): 17.9 µM

Row | Structure (SMILES) | IC50 (Hex A; [4]) [µM] | IC50 (Hex A; [6]) [µM] | IC50 (Hex A; [7]) [µM] | EC50 (mutant Hex A [1]) [µM] | Max Increase (mutant Hex A [1]) | Range of Increase (mutant Hex A [1]) | further results
20 | Cc1cccc(-c2c(C)nc(N)nc2N)c1 [ksh3-14d] | 10400 |  |  |  |  |  | 
21 | CCc1nc(N)nc(N)c1-c1ccc(Cl)cc1 [PYR, Pyrimethamine, reference compound] |  |  |  |  | 2.0 | 4 | reduction of viability compared to PYRdCl treated patient fibroblasts (patient fibroblasts): more than 20%; pKHA (Hex A): 6.5; Max Increase (mutant Hex A [1]; listed as PYR (vsa7)): 1.4; cell toxicity (mutant Hex A [3]; 33.33 μg/ml, five days): cell death was occurring; rescue of mutant Hex A activity compared with NGT (mutant Hex A [3]; fibroblasts expressing αG269S, four days (FIG. 1)): better able to rescue mutant Hex A activity
22 | Cc1nc(N)nc(N)c1-c1ccccc1 [ksh3-05] | 1230 |  |  |  |  |  | IC50 (Hex A; [5]): 1230 µM
23 | CCCc1nc(N)nc(N)c1-c1ccc(F)cc1 [ksh3-33a] |  | 39 ± 1 | 39.1 | 12.5 | 1.4 | 4 | 
24 | Cc1cc(C)cc(-c2c(C)nc(N)nc2N)c1 [ksh3-14e] | 1230 |  |  |  |  |  | IC50 (Hex A; [5]): 1230 µM
25 | CCc1nc(N)nc(N)c1-c1ccc(F)cc1 [ksh3-17] |  | 50 ± 1 | 50.4 | 8.24 | 1.8 | 4 | 
26 | CCc1nc(N)nc(N)c1-c1cccs1 [zjm7-67] |  | 31 ± 1 | 30.8 | 6.46 | 1.7 | 2 | 
27 | CCc1nc(N)nc(N)c1-c1ccccc1C [ksh3-19c] |  | 44 ± 1 | 43.7 | 4.95 | 1.9 | 4 | 
28 | CCCc1nc(N)nc(N)c1-c1ccc(OC)cc1 [zjm1-139] |  | 28 ± 1 | 28.2 | 14.2 | 2.3 | 4 | 
29 | CCC1=C(c2ccc(Cl)cc2)C(N)=NCN1 [vsa8] | 967 |  |  |  |  |  | IC50 (Hex A; [5]): 967 µM
30 | CC1=N[C@@H]2[C@@H](O)[C@H](O)[C@@H](CO)O[C@@H]2S1 [NGT, NAG-thiazoline, reference compound] |  |  |  |  |  |  | pKHA (Hex A): 4.5
31 | CCc1nc(N)nc(N)c1-c1ccc(C(F)(F)F)cc1 [jts16] |  | 18 ± 1 | 17.7 | 5.14 | 1.3 | 4 | 
32 | CCc1nc(N)nc(N)c1-c1ccsc1 [zjm7-69] |  | 55 ± 1 | 55 | 10 | 1.9 | 4 | 
33 | CCCc1nc(N)nc(N)c1-c1ccccc1 [ksh3-29] |  | 37 ± 1 | 36.6 | 12.1 | 1.6 | 3 | 
34 | CCCCc1nc(N)nc(N)c1-c1ccc(C(F)(F)F)cc1 [zjm1-115] |  | 142 ± 3 | 142 |  |  |  | 
35 | CCCCc1nc(N)nc(N)c1-c1ccc(OC)cc1 [zjm1-113] | 870 |  |  |  |  |  | IC50 (Hex A; [5]): 870 µM
36 | Cc1nc(N)nc(N)c1-c1ccc(Cl)cc1 [jts22] |  | 556 ± 1 | 556 |  |  |  | 
37 | CCc1nc(N)nc(N)c1-c1ccc(C)cc1 [ksh3-19b] |  | 72 ± 2 | 72.3 | 4.44 | 1.5 | 4 | 
38 | CCc1ncncc1-c1ccc(C(F)(F)F)cc1 [vsa4] | 2110 |  |  |  |  |  | 
